The target in assay [1] is T1, Sentrin-specific protease 6 (Homo sapiens, UniProt Q9GZR1).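 Note: Luminescence-based dose-response confirmatory assay of SENP6 inhibition, following up an ultra-high-throughput screen.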
T1 sequence (Q9GZR1 whole entry): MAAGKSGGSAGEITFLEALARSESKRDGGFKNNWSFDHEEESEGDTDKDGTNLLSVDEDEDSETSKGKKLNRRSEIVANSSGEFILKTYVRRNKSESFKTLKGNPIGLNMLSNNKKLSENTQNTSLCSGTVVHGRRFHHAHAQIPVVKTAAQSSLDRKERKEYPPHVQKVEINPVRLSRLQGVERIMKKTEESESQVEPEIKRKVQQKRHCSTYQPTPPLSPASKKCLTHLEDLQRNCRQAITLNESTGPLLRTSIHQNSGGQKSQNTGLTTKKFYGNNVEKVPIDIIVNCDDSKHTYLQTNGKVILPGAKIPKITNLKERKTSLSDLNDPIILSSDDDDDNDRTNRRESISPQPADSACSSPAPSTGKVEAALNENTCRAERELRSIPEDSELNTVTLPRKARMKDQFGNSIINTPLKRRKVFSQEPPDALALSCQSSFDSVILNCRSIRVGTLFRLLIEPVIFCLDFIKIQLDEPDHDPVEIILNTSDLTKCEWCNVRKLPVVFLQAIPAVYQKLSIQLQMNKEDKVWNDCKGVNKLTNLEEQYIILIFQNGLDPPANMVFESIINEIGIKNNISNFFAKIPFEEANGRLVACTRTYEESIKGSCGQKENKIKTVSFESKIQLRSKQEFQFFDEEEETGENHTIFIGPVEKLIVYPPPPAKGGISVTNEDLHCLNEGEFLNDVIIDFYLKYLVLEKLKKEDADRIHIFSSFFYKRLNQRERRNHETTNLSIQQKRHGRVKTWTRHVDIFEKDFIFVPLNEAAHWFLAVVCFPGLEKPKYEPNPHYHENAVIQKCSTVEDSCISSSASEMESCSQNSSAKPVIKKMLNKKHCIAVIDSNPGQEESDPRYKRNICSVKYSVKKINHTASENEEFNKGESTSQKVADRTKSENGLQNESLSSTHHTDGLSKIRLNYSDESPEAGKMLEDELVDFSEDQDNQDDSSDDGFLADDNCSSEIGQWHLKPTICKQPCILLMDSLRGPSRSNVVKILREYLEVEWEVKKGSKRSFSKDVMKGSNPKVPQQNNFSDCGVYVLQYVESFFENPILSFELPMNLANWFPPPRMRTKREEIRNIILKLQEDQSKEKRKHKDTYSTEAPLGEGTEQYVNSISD
It is filed as functional.

Assay [2] concerns Streptococcus sp. 'group A'. The assay is described as follows: growth inhibition of control SK(-) GAS strain, dose response, counter-screen for streptokinase expression inhibitor project, luminescence, kanamycin, BacTiterGlo, confirmation (AID 1900). The format is functional, organism-based.
Assay [3] deals with T2, Replicative DNA helicase DnaB (Mycobacterium tuberculosis, UniProt P9WMR3).
T2 sequence (P9WMR3 whole entry): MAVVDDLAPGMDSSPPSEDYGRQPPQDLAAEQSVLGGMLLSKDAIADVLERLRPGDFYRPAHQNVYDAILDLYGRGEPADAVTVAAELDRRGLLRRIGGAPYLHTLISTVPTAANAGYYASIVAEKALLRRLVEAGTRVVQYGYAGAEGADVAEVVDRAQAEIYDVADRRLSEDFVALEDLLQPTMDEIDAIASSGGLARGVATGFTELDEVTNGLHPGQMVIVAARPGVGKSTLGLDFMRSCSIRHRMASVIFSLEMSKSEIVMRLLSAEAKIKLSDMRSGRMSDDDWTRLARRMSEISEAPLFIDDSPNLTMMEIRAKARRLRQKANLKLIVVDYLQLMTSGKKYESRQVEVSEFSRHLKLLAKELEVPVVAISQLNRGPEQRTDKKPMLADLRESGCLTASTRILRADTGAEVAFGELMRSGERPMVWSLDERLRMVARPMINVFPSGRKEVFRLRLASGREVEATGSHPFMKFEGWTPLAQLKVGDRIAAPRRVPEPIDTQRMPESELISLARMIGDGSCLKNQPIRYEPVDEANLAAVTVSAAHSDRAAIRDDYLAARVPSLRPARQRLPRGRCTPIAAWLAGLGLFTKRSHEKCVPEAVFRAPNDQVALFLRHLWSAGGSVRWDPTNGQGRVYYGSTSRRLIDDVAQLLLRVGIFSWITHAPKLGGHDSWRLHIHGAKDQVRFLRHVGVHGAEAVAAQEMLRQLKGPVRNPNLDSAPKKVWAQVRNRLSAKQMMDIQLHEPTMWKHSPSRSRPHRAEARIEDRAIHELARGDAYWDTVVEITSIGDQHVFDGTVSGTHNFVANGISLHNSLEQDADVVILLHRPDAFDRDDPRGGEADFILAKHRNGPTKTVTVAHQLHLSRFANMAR
The assay can be described thus: DnaB intein splicing inhibitors, dose response, biochemical, cell-free fluorescence (AID 449749). It is filed as functional.

Assay [4] deals with T3, Tyrosine-protein kinase receptor TYRO3 (Homo sapiens, UniProt Q06418).
T3 sequence (Q06418 whole entry): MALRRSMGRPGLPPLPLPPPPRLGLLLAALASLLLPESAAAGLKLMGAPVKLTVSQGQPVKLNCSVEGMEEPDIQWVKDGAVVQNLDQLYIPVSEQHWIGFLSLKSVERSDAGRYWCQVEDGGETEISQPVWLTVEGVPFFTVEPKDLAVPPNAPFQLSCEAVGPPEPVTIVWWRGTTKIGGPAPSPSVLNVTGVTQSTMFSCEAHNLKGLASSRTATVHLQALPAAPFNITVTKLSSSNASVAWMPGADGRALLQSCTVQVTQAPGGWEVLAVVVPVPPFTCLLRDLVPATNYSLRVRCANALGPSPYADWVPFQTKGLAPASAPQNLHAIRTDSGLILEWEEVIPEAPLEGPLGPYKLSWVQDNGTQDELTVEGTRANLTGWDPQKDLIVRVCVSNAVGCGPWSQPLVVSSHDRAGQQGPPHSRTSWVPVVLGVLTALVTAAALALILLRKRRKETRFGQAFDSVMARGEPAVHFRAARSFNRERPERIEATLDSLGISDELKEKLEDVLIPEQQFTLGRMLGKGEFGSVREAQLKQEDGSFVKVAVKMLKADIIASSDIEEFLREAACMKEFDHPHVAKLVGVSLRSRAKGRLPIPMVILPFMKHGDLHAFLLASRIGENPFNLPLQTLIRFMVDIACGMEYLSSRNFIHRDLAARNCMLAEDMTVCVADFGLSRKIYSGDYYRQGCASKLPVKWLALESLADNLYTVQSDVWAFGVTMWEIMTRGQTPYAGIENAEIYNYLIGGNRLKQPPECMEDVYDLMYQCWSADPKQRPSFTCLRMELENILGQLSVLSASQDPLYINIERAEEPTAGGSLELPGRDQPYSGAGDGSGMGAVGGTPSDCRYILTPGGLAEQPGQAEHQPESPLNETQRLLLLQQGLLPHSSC
It is filed as functional.

The target of assay [5] is Cyclin-dependent kinase 5 (Homo sapiens, UniProt Q00535). It is filed as functional.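 Note: CDK5 measured as one member of a kinase profiling panel.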
Sequence of Cyclin-dependent kinase 5 (Q00535 whole entry): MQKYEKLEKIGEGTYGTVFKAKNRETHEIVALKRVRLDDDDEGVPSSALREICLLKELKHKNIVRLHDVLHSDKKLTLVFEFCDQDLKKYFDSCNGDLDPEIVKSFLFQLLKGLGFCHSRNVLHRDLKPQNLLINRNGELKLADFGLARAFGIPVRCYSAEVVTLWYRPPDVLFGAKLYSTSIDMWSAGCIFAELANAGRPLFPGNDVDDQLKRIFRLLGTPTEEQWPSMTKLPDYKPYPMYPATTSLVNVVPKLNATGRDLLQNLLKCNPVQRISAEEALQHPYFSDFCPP
Another assay deals with Aurora kinase B (Homo sapiens, UniProt Q96GD4). It is filed as functional.
Sequence of Aurora kinase B (Q96GD4 whole entry): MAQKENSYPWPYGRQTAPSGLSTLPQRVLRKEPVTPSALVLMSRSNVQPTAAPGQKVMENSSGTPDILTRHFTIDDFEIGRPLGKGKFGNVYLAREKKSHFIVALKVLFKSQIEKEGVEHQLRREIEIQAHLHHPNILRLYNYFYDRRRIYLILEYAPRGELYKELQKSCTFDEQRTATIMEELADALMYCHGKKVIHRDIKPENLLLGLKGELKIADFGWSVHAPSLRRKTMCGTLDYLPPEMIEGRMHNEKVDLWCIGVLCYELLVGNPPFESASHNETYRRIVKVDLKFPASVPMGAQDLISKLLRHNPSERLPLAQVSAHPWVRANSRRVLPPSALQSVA

The source made the active and inactive calls. A value given as a limit tells only on which side of the number the result lay.

One may read the IC50 as the concentration needed to halve the response being measured. `CCCNC(=O)c1c(N)n(CC2CCCO2)c2nc3ccccc3nc12` (centres undefined): in assay [1], the IC50 was 2010 nM (active).

What is called EC50 is the concentration needed to bring the measured effect to its halfway point. The AC50 is the concentration giving half of the maximal activity seen. In the case of `CCc1ccc(S(=O)(=O)/N=C2\C=C(Nc3ccc(O)cc3)C(=O)c3ccccc32)cc1`, the EC50 in assay [2] is 1860 nM (active). Besides, the AC50 in assay [3] was 416 nM (active).

Consider `O=C1/C(=C\c2cccc(O)c2O)SC(=S)N1Cc1ccccc1`, for which the EC50 in assay [2] is 2770 nM (active). Besides, in assay [3], the AC50 was > 380000 nM (inactive).

As for `CC(C)(C)c1cc[n+](C2=C([N-]S(=O)(=O)c3cccs3)C(=O)c3ccccc3C2=O)cc1`, the EC50 in assay [2] was 2730 nM (active). The IC50 in assay [1] was 5530 nM (active). For the same compound, the AC50 in assay [3] is 980 nM (active).

As usually defined, the Ki is the dissociation constant of the complex between target and ligand, obtained from inhibition or displacement. In the case of `COc1c(-c2nc3ccccc3[nH]2)c(O)cc2oc(C)cc(=O)c12`, the figures for the Ki (in assay [4]; in assay [5]; on Aurora kinase B) were 316 nM (active), 794 nM (active) and 794 nM (active), respectively.

For `Cc1cc([N+](=O)[O-])cc(/C=N\NC(=O)C2COc3ccccc3O2)c1O` (centres undefined), the EC50 in assay [2] was 2740 nM (active). Besides, the IC50 in assay [1] was 28400 nM (active).

Take `COC(=O)c1c(N)nc2ccccn12`: the Ki was 25100 nM (active) in assay [4], 39800 nM (active) in assay [5] and 15800 nM (active) at Aurora kinase B.

Take `Cc1ccc(F)c(NC(=O)Nc2ccc(-c3cccc4[nH]nc(N)c34)cc2)c1` [LINIFANIB]: the results for the Ki (in assay [4]; in assay [5]; on Aurora kinase B) were > 3160 nM (inactive), > 3160 nM (inactive) and 79.4 nM (active), respectively.

The values are drawn from ChEMBL document CHEMBL1201862, “PubChem BioAssay data set” (2004).
